Test results published in article PMC4441592 (Neuron, 2015).
pEC50, pKi: −log10 of the molar value. Peptide text beside a SMILES is read from it.

Assays:
KORD (D138N hKOR) = KORD (D138N hKOR) (Homo sapiens, UniProt P41145, D138N); assay: cell-based; details: EC50(nM)
KOR [1] = molecular target: T1, KOR (Homo sapiens, UniProt P41145); assay: cell-based; details: for EC50: EC50(nM); for pEC50: pEC50 ± SEM
[2] = test system: VGAT-ires-Cre mice, VTA/SN^VGAT neurons; assay: Locomotor activity; format: in vivo
[3] = test system: AGRP-ires-cre mice, ARC^AgRP neurons with hM3Dq and KORD; assay: Feeding study with multiplexed KOR and hM3Dq DREADD; format: in vivo; details: hM3Dq and KORD in ARC^AgRP neurons; CNO 1mg/kg i.p.
KORD = KORD (Homo sapiens, UniProt P41145, D138N); assay: Radioligand competition binding, KORD
KOR [4] = molecular target: T1, KOR; assay: [3H]-diprenorphine radioligand competition binding, WT KOR

Row | SMILES | EC50 (KORD (D138N hKOR)) [nM] | Emax (KOR [1]) [%] | EC50 (KOR [1]) [nM] | pEC50 (KOR [1]) | further results
1 | CSCC[C@H](NC(=O)[C@H](Cc1ccccc1)NC(=O)CNC(=O)CNC(=O)[C@@H](N)Cc1ccc(O)cc1)C(=O)N[C@@H](CCCNC(=N)N)C(=O)N[C@@H](CCCNC(=N)N)C(=O)N[C@H](C(=O)NCC(=O)N[C@@H](CCCNC(=N)N)C(=O)N1CCC[C@H]1C(=O)N[C@@H](CCC(=O)O)C(=O)O)C(C)C [BAM 12] (H-YGGFMRRVGRPE-OH) | > 10000 | 99 | 101 | 6.99 | –
2 | CSCC[C@H](NC(=O)[C@H](Cc1ccccc1)NC(=O)CNC(=O)CNC(=O)[C@@H](N)Cc1ccc(O)cc1)C(=O)N[C@@H](CCCNC(=N)N)C(=O)N[C@@H](CCCNC(=N)N)C(=O)N[C@H](C(=O)NCC(=O)N[C@@H](CCCNC(=N)N)C(=O)N1CCC[C@H]1C(=O)N[C@@H](CCC(=O)O)C(=O)N[C@@H](Cc1c[nH]c2ccccc12)C(=O)N[C@@H](Cc1c[nH]c2ccccc12)C(=O)N[C@@H](CCSC)C(=O)N[C@@H](CC(=O)O)C(=O)N[C@@H](Cc1ccc(O)cc1)C(=O)N[C@@H](CCC(N)=O)C(=O)O)C(C)C [BAM 18] (H-YGGFMRRVGRPEWWMDYQ-OH) | > 10000 | 97 | 85 | 7.07 | –
3 | CSCC[C@H](NC(=O)[C@H](Cc1ccccc1)NC(=O)CNC(=O)CNC(=O)[C@@H](N)Cc1ccc(O)cc1)C(=O)N[C@@H](CCCNC(=N)N)C(=O)N[C@@H](CCCNC(=N)N)C(=O)N[C@H](C(=O)NCC(=O)N[C@@H](CCCNC(=N)N)C(=O)N1CCC[C@H]1C(=O)N[C@@H](CCC(=O)O)C(=O)N[C@@H](Cc1c[nH]c2ccccc12)C(=O)N[C@@H](Cc1c[nH]c2ccccc12)C(=O)N[C@@H](CCSC)C(=O)N[C@@H](CC(=O)O)C(=O)N[C@@H](Cc1ccc(O)cc1)C(=O)N[C@@H](CCC(N)=O)C(=O)N[C@@H](CCCNC(=N)N)C(=O)N[C@@H](Cc1ccc(O)cc1)C(=O)NCC(=O)O)C(C)C [BAM 22] (H-YGGFMRRVGRPEWWMDYQRYG-OH) | > 10000 | 95 | 93 | 7.03 | –
4 | C[N+]1([O-])CCN(C2=Nc3cc(Cl)ccc3Nc3ccccc32)CC1 [CNO, clozapine-N-oxide] | – | – | – | – | locomotor activity, same session ([2]; dual DREADD mice, 3.0 mg/kg CNO): significant locomotor depression; locomotor activity in control mice ([2]; mCherry in VTA/SN^VGAT neurons, 3.0 mg/kg i.p.): did not affect behavior; locomotor activity vs vehicle ([2]; mice expressing both KORD and hM3Dq in VTA/SN^VGAT neurons, 3.0 mg/kg, different testing sessions): decreased locomotor activity; light cycle food intake [3]: 0.75 ± 0.03 g
5 | CC(C)C[C@H](NC(=O)[C@H](Cc1ccccc1)NC(=O)CNC(=O)CNC(=O)[C@@H](N)Cc1ccc(O)cc1)C(=O)N[C@@H](CCCNC(=N)N)C(=O)O [Dynorphin A(1-6)] (H-YGGFLR-OH) | – | 86 | – | – | –
6 | CC(C)C[C@H](NC(=O)[C@H](Cc1ccccc1)NC(=O)CNC(=O)CNC(=O)[C@@H](N)Cc1ccc(O)cc1)C(=O)N[C@@H](CCCNC(=N)N)C(=O)N[C@@H](CCCNC(=N)N)C(=O)O [Dynorphin A(1-7)] | – | 97 | – | – | –
7 | CC[C@H](C)[C@H](NC(=O)[C@H](CCCNC(=N)N)NC(=O)[C@H](CCCNC(=N)N)NC(=O)[C@H](CC(C)C)NC(=O)[C@H](Cc1ccccc1)NC(=O)CNC(=O)CNC(=O)[C@@H](N)Cc1ccc(O)cc1)C(=O)O [Dynorphin A(1-8)] | – | 94 | – | – | –
8 | CC[C@H](C)[C@H](NC(=O)[C@H](CCCN=C(N)N)NC(=O)[C@H](CCCN=C(N)N)NC(=O)[C@H](CC(C)C)NC(=O)[C@H](Cc1ccccc1)NC(=O)CNC(=O)CNC(=O)[C@@H](N)Cc1ccc(O)cc1)C(=O)N[C@@H](CCCN=C(N)N)C(=O)O [Dynorphin A(1-9)] (H-YGGFLRRIR-OH) | > 10000 | – | 127 | 6.89 | –
9 | CC[C@H](C)[C@H](NC(=O)[C@H](CCCNC(=N)N)NC(=O)[C@H](CCCNC(=N)N)NC(=O)[C@H](CC(C)C)NC(=O)[C@H](Cc1ccccc1)NC(=O)CNC(=O)CNC(=O)[C@@H](N)Cc1ccc(O)cc1)C(=O)N[C@@H](CCCNC(=N)N)C(=O)O [Dynorphin A(1-9)] (H-YGGFLRRIR-OH) | – | 93 | – | – | –
10 | CC[C@H](C)[C@H](NC(=O)[C@H](CCCNC(=N)N)NC(=O)[C@H](CCCNC(=N)N)NC(=O)[C@H](CC(C)C)NC(=O)[C@H](Cc1ccccc1)NC(=O)CNC(=O)CNC(=O)[C@@H](N)Cc1ccc(O)cc1)C(=O)N[C@@H](CCCNC(=N)N)C(=O)N1CCC[C@H]1C(=O)N[C@@H](CCCCN)C(=O)N[C@@H](CC(C)C)C(=O)N[C@@H](CCCCN)C(=O)O [Dynorphin A(1-13)] | > 10000 | – | 19 | 7.71 | pKi (KORD): 5.79; pKi (KOR [4]): 8.50
11 | CC(C)C[C@H](NC(=O)[C@H](Cc1ccccc1)NC(=O)CNC(=O)CNC(=O)[C@@H](N)Cc1ccc(O)cc1)C(=O)N[C@@H](CCCNC(=N)N)C(=O)N[C@@H](CCCNC(=N)N)C(=O)N[C@@H](CCC(N)=O)C(=O)N[C@@H](Cc1ccccc1)C(=O)N[C@@H](CCCCN)C(=O)N[C@H](C(=O)N[C@H](C(=O)N[C@H](C(=O)O)[C@@H](C)O)C(C)C)C(C)C [Dynorphin B(1-13)] | – | 100 | – | – | –
12 | CSCC[C@H](NC(=O)[C@H](Cc1ccccc1)NC(=O)CNC(=O)CNC(=O)[C@@H](N)Cc1ccc(O)cc1)C(=O)N[C@@H](CCCNC(=N)N)C(=O)N[C@@H](Cc1ccccc1)C(=O)O [Met-enkephalin-Arg-Phe] (H-YGGFMRF-OH) | – | 99 | – | – | –
13 | CSCC[C@H](NC(=O)[C@H](Cc1ccccc1)NC(=O)CNC(=O)CNC(=O)[C@@H](N)Cc1ccc(O)cc1)C(=O)O [Met-enkephalin] | – | 79 | – | – | –
14 | CSCC[C@H](NC(=O)[C@H](Cc1ccccc1)NC(=O)CNC(=O)CNC(=O)[C@@H](N)Cc1ccc(O)cc1)C(=O)N[C@@H](CCCNC(=N)N)C(=O)N[C@@H](CCCNC(=N)N)C(=O)N[C@H](C(N)=O)C(C)C [Metorphamide] | > 10000 | 97 | 108 | 6.99 | –
15 | CSCC[C@H](NC(=O)[C@H](Cc1ccccc1)NC(=O)CNC(=O)CNC(=O)[C@@H](N)Cc1ccc(O)cc1)C(=O)N[C@@H](CCCNC(=N)N)C(=O)N[C@@H](CCCNC(=N)N)C(=O)N[C@H](C(=O)NCC(=O)N[C@@H](CCCNC(=N)N)C(=O)N1CCC[C@H]1C(=O)N[C@@H](CCC(=O)O)C(=O)N[C@@H](Cc1c[nH]c2ccccc12)C(=O)N[C@@H](Cc1c[nH]c2ccccc12)C(=O)N[C@@H](CCSC)C(=O)N[C@@H](CC(=O)O)C(=O)N[C@@H](Cc1ccc(O)cc1)C(=O)N[C@@H](CCC(N)=O)C(=O)N[C@@H](CCCNC(=N)N)C(=O)N[C@@H](Cc1ccc(O)cc1)C(=O)NCC(=O)NCC(=O)N[C@@H](Cc1ccccc1)C(=O)N[C@@H](CC(C)C)C(=O)O)C(C)C [Peptide E] (H-YGGFMRRVGRPEWWMDYQRYGGFL-OH) | > 10000 | 95 | 65 | 7.18 | –
16 | CC(C)C[C@H](NC(=O)[C@H](Cc1ccccc1)NC(=O)CNC(=O)CNC(=O)[C@@H](N)Cc1ccc(O)cc1)C(=O)N[C@@H](CCCNC(=N)N)C(=O)N[C@@H](CCCCN)C(=O)N[C@@H](Cc1ccc(O)cc1)C(=O)N1CCC[C@H]1C(=O)N[C@@H](CCCCN)C(=O)O [α-Neoendrophin] (H-YGGFLRKYPK-OH) | > 10000 | 95 | 64 | 7.19 | –
17 | CC[C@H](C)[C@H](NC(=O)[C@H](C)NC(=O)[C@H](CC(N)=O)NC(=O)[C@H](CCCCN)NC(=O)[C@H](Cc1ccccc1)NC(=O)[C@H](CC(C)C)NC(=O)[C@@H](NC(=O)[C@@H](NC(=O)[C@H](CC(C)C)NC(=O)[C@@H]1CCCN1C(=O)[C@@H](NC(=O)[C@H](CCC(N)=O)NC(=O)[C@H](CO)NC(=O)[C@H](CCCCN)NC(=O)[C@H](CCC(=O)O)NC(=O)[C@H](CO)NC(=O)[C@@H](NC(=O)[C@H](CCSC)NC(=O)[C@H](Cc1ccccc1)NC(=O)CNC(=O)CNC(=O)[C@@H](N)Cc1ccc(O)cc1)[C@@H](C)O)[C@@H](C)O)C(C)C)[C@@H](C)O)C(=O)N[C@H](C(=O)N[C@@H](CCCCN)C(=O)N[C@@H](CC(N)=O)C(=O)N[C@@H](C)C(=O)N[C@@H](Cc1ccc(O)cc1)C(=O)O)[C@@H](C)CC [β-Endorphin (1-27)] (H-YGGFMTSEKSQTPLVTLFKNAIIKNAY-OH; N-terminus and C-terminus assumed) | > 10000 | 100 | 700 | 6.15 | –
18 | CC[C@H](C)[C@H](NC(=O)[C@H](C)NC(=O)[C@H](CC(N)=O)NC(=O)[C@H](CCCCN)NC(=O)[C@H](Cc1ccccc1)NC(=O)[C@H](CC(C)C)NC(=O)[C@@H](NC(=O)[C@@H](NC(=O)[C@H](CC(C)C)NC(=O)[C@@H]1CCCN1C(=O)[C@@H](NC(=O)[C@H](CCC(N)=O)NC(=O)[C@H](CO)NC(=O)[C@H](CCCCN)NC(=O)[C@H](CCC(=O)O)NC(=O)[C@H](CO)NC(=O)[C@@H](NC(=O)[C@H](CCSC)NC(=O)[C@H](Cc1ccccc1)NC(=O)CNC(=O)CNC(=O)[C@@H](N)Cc1ccc(O)cc1)[C@@H](C)O)[C@@H](C)O)C(C)C)[C@@H](C)O)C(=O)N[C@H](C(=O)N[C@@H](CCCCN)C(=O)N[C@@H](CC(N)=O)C(=O)N[C@@H](C)C(=O)N[C@@H](Cc1ccc(O)cc1)C(=O)N[C@@H](CCCCN)C(=O)N[C@@H](CCCCN)C(=O)NCC(=O)N[C@@H](CCC(=O)O)C(=O)O)[C@@H](C)CC [β-Endorphin (1-31)] | > 10000 | 100 | 706 | 6.15 | –
